Measurements reported in patent US20050065064A1, “Identification of allosteric peptide agonists of CXCR4” (priority 2002, published 2005).
Values belong to the compound of their own block, whether it stands above or below them. Where a SMILES comes first, the peptide text is derived from it.

Legend:
[1] = molecular target: T1, CXCR4 (Homo sapiens, UniProt P61073); conditions: reference (31); cited from earlier work
Target sequence in this assay (P61073 whole entry, species assumed): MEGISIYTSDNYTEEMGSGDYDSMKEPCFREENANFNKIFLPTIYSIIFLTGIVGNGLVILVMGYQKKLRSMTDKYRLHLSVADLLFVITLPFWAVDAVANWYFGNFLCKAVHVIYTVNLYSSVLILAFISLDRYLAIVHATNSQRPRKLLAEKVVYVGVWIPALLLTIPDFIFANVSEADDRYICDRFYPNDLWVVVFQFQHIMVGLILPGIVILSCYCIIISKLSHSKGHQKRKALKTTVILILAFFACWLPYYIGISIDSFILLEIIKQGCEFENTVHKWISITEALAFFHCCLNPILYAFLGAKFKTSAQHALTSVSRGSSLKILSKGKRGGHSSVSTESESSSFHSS

[2] = molecular target: T1, CXCR4; experiment: β-galactosidase assay in yeast expressing CXCR4 (FUS1-lacZ reporter); assay type: cell-based; design: The plasmid Cp4181 contains the CXCR4 gene under the control of the constitutive phosphoglycerate kinase (PGK1) promoter; expressed in transfected cells; host or cells: Saccharomyces cerevisiae CY12946 derivatives YAS2 / YAS3 (plasmid Cp4181)
Source text: The initial S. cerevisiae strain was CY12946 (MATα FUS1p-HIS3 GPA1Gαi2(5) canI farIΔI442 his3 leu2 sst2Δ2 ste14::trp1::LYS2 ste3Δ1156 tbt1-1 trp1 ura3) (23). Except for the specific chimeric Ga subunit expressed, CY12946 is genetically similar to CY1141, reported in Klein et al. (18), with two differences. First, the two strains express different Gα subunits. Specifically, CY12946 expresses a chimeric Gα subunit (GPA1Gαi2(5)) in which the C-terminal 5 amino acids of the yeast Ga subunit, GPA1, are replaced by the C-terminal 5 residues of Gαi2. In contrast, as described by Klein et al. (18), CY1141 expresses a chimeric Ga subunit (GPA1(41)Gαi2) in which the N-terminal 33 residues of Gαi2 are replaced by the 41 N-terminal residues of GPA1. We have used CY12946 in the current report because GPA1Gαi2(5) is more efficient than GPA1(41)Gαi2 in coupling CXCR4 to the pheromone response pathway. The use of GPA1Gαi2(5) necessitated deletion of SST2, which down-regulates the pheromone response pathway by accelerating the GTPase activity of GPA1. Thus, the second difference between CY12946 and CY1141 is the presence of an sst2 deletion allele in CY12946. All plasmids were 2μ-derived and contained a REP3 element for autonomous replication in S. cerevisiae and AmPR for selection in Escherichia coli. The plasmid Cp4181 contains the CXCR4 gene under the control of the constitutive phosphoglycerate kinase (PGK1) promoter and a LEU2 selectable marker. […] It also contains the TRP1 selectable marker. Cp6160 expresses full length wild-type SDF-1α in yeast under the control of the constitutive alcohol dehydrogenase (ADH1) promoter. The α-factor signal sequence is cloned at the 5′-end of the SDF sequence to allow secretion of the mature polypeptide. The vector also has the URA3 selectable marker allowing transformed cells to grow in media deficient in uracil. For expression of the 17-mer peptide library, Cp6293 was used. This URA3+plasmid was derived from Cp6160 and contains a frameshift in the SDF-1α sequence so that no functional protein is expressed unless an insert is appropriately cloned. The cDNA coding for 17-mer peptides was cloned using the restriction sites HindIII and Acc65I, which also results in the secretion of the mature peptide. S. cerevisiae strains YAS1, YAS2, YAS3 were constructed by transforming CY12946 with Cp1584, Cp1584/Cp4181 and Cp1584/Cp4181/Cp6160, respectively.
The liquid beta-galactosidase assays were performed essentially as described in (24) or (27) with the following modification. After growth in the appropriate medium, 5 ml of cells displaying the agonist phenotype were centrifuged (2500 rpm for 5 min) and resuspended in 0.5 ml as described (28).
To identify allosteric peptide agonists or modulators of CXCR4, it was necessary to establish an assay that could isolate molecules with the desired properties from a large peptide library. The screen that was used consisted of two steps. The first step was to isolate peptide sequences from a synthetic cDNA library that would allow cells to grow only after activation of CXCR4. A second step was required that would segregate agonists that bind to the native active site from those that bind to allosteric sites. This step involved an agonist assay in the presence of a receptor antagonist. A number of genetic modifications made to S. cerevisiae allowed it to be used for monitoring the interactions of peptides or proteins with CXCR4 (FIG. 1). […]
Target sequence in this assay (P61073 whole entry): as the sequence (P61073 whole entry, species assumed) above

[3] = test system: CXCR4; experiment: as above; assay type: cell-based, human; conditions: yeast lacking CXCR4; data not shown
Source text: The initial S. cerevisiae strain was CY12946 (MATα FUS1p-HIS3 GPA1Gαi2(5) canI farIΔI442 his3 leu2 sst2Δ2 ste14::trp1::LYS2 ste3Δ1156 tbt1-1 trp1 ura3) (23). Except for the specific chimeric Ga subunit expressed, CY12946 is genetically similar to CY1141, reported in Klein et al. (18), with two differences. First, the two strains express different Gα subunits. Specifically, CY12946 expresses a chimeric Gα subunit (GPA1Gαi2(5)) in which the C-terminal 5 amino acids of the yeast Ga subunit, GPA1, are replaced by the C-terminal 5 residues of Gαi2. In contrast, as described by Klein et al. (18), CY1141 expresses a chimeric Ga subunit (GPA1(41)Gαi2) in which the N-terminal 33 residues of Gαi2 are replaced by the 41 N-terminal residues of GPA1. We have used CY12946 in the current report because GPA1Gαi2(5) is more efficient than GPA1(41)Gαi2 in coupling CXCR4 to the pheromone response pathway. The use of GPA1Gαi2(5) necessitated deletion of SST2, which down-regulates the pheromone response pathway by accelerating the GTPase activity of GPA1. Thus, the second difference between CY12946 and CY1141 is the presence of an sst2 deletion allele in CY12946. All plasmids were 2μ-derived and contained a REP3 element for autonomous replication in S. cerevisiae and AmPR for selection in Escherichia coli. […]

[4] = molecular target: T1, CXCR4; experiment: Yeast growth / colony formation in histidine-deficient medium (FUS1-HIS3); assay type: cell-based; design: The plasmid Cp4181 contains the CXCR4 gene under the control of the constitutive phosphoglycerate kinase (PGK1) promoter; expressed in transfected cells; host or cells: Saccharomyces cerevisiae CY12946 derivatives YAS2 / YAS3 (plasmid Cp4181)
Method: All basic media were prepared essentially as described (24). In cases where plasmid selection was necessary, media that lacked uracil, leucine, or tryptophan or an appropriate combination of these nutrients were employed. Library screening was performed in plates that lacked histidine and contained 3-amino-1,2,4-triazole (Sigma), which suppresses the basal level of histidine biosynthesis due to the activity of the FUS1 promoter.
A number of genes for biosynthetic enzymes have been mutated to allow selection of the corresponding marker on a plasmid transformed into the yeast strain. The genomic HIS3 gene, coding for an enzyme essential for the biosynthesis of histidine, has been disrupted by an insertion. The wild-type HIS3 gene has been placed under the control of the pheromone-responsive FUS1 promoter; as a result activation of CXCR4 enables cells to grow in media lacking histidine. To reduce false positives due to any basal activity of FUS1-HIS3,3-amino-1,2,4-triazole, an inhibitor of the enzyme coded by HIS3, is present at low levels in the media during agonist selection. […] Furthermore, the CXCR4 antagonist AMD3100 (34) inhibited YAS2 colony formation (data not shown) and β-galactosidase activity in response to SDF-1α (FIG. 2C).
Target sequence in this assay (P61073 whole entry): as the sequence (P61073 whole entry, species assumed) above

[5] = test system: CCRF-CEM cells; experiment: Chemotaxis assay (transwell) on CCRF-CEM cells; assay type: cell-based, human
Method: The CCRF-CEM acute lymphoblastic leukemia cell line was previously shown to express CXCR4 and to migrate in response to SDF-1α (31). The procedure involved cells that were ˜70-80% confluent and were centrifuged at 1000 rpm for 5 min and resuspended at a concentration of ˜10^7 cells/ml. The transwell system (Corning-Costar^R) was used for quantifying the chemotactic response. Six hundred μl of solution with different concentrations of a CXCR4 agonist were added to the bottom of the wells of 24-well culture plates. One hundred μl of the cell suspension was aliquoted in the transwell cups and inserted in the wells. The bottom of the cups is layered with a membrane that has a 5 μm pore size and allows cell movement towards the higher concentration of chemoattractant. The cells were incubated for 2h at 37° C., after which the migrated cells were collected and counted with an electronic particle counter (Coulter^R). In cases where the effect of neutralization by CXCR4 monoclonal antibodies or antagonists was examined, the inhibitor was added to the upper compartment along with the cells.

[6] = molecular target: T1, CXCR4; experiment: Flow cytometry of CXCR4 surface levels (12G5 indirect staining); assay type: cell-based
Method: Flow cytometric analysis of cell subpopulations was performed using a FACS Vantage flow cytometer (Becton-Dickinson Immunocytometry Systems, San Jose, Calif.) for detection of CXCR4 surface expression with the 12G5 monoclonal antibody. An indirect staining protocol was used. Briefly, after a 90 min incubation with various agents, the cells were washed and resuspended in PBS. Nonspecific (Fc-mediated) binding was blocked using purified rat IgG. The primary antibody (12G5, a mouse IgG2a antibody) was added at 1 μg/ml for 45 min. After centrifugation the cells were resuspended in PBS and the secondary antibody (FITC-linked rat anti-mouse IgG2a) was added at 10 μg/ml for 45 min. The cells were fixed with 2% formaldehyde (in PBS) and used within 2 days for data acquisition. Mouse IgG2a was used as an isotype control. For the fluorescence measurements the cells were excited at 488 nm. The FITC fluorescence was collected through a 530/30 nm band pass filter. A minimum of 15,000 cells were examined for each sample. Analysis of data was performed using the CellQuest software (Becton-Dickinson).
Target sequence in this assay (P61073 whole entry): as the sequence (P61073 whole entry, species assumed) above

[7] = test system: HIV-1; conditions: in vitro; reference (58); cited from earlier work
[8] = references (55), (56); cited from earlier work

response of strain without the receptor (YAS 1) [3]: does not respond
Compound: SDF-1α
EC50 [1]: 0.001 to 0.01 µM
induction of β-galactosidase activity ([2]; HIS3-/CXCR4+ yeast with FUS1-lacZ, SDF-1α 100 nM, D-SDF-1α 100 nM, 14-mer 1 μM (FIG. 2B)): induces an increase of β-galactosidase activity
growth in the absence of histidine ([4]; endogenously expressed SDF-1α, strain expressing CXCR4 (FIG. 2A)): allows the strain expressing CXCR4 to grow in the absence of this amino acid

EC50 ([5]; CCRF-CEM cells (FIG. 4A, 4B), read-out: apparent EC50, chemotaxis): > 60 µM
resistance of β-galactosidase activity to AMD3100 ([2]; peptide-expressing yeast clones): resistance to AMD3100
effect on CXCR4 levels on the cell surface ([6]; 90 min incubation, SDF-Fc 1 μM, RSVM 200 μM, ASLW 100 μM (FIG. 8A-C)): only aminor decrease
Compound: CC(C)C[C@H](NC(=O)[C@H](CO)NC(=O)[C@H](C)N)C(=O)N[C@@H](Cc1c[nH]c2ccccc12)C(=O)N[C@@H](CC(C)C)C(=O)N[C@@H](CO)C(=O)N[C@@H](Cc1ccc(O)cc1)C(=O)N[C@@H](CCCNC(=N)N)C(=O)N[C@@H](CS)C(=O)N1CCC[C@H]1C(=O)N[C@@H](CS)C(=O)N[C@@H](CCCNC(=N)N)C(=O)N[C@@H](Cc1ccccc1)C(=O)N[C@@H](Cc1ccccc1)C(=O)N[C@@H](CCC(=O)O)C(=O)N[C@@H](CO)C(=O)N[C@@H](Cc1c[nH]cn1)C(=O)O [ASLW] (H-ASLWLSYRCPCRFFESH-OH; N-terminus and C-terminus assumed)
agonist character in chemotaxis (chemotactic index relative to SDF-Fc) ([5]; CCRF-CEM cells): superagonist activity
chemotactic activity combined with SDF-Fc ([5]; CCRF-CEM cells (FIG. 4D)): approximately additive
chemotaxis in the presence of the two peptide agonists ASLW and RSVM ([5]; CCRF-CEM cells (FIG. 4E)): additive
effect of AMD3100 on chemotactic activity of the agonist ([5]; CCRF-CEM cells, AMD3100 up to 100 μg/ml (~115 μM)): Strong resistance to inhibition
effect of T140 on chemotactic activity of the agonist ([5]; CCRF-CEM cells, T140 up to concentrations comparable to the agonists): does not inhibit
effect of antibody 44717.111 on chemotactic activity of the agonist ([5]; CCRF-CEM cells, up to 50 μg/ml for the peptides, ten-fold lower for SDF-Fc): neither RSVM- nor ASLW-mediated chemotactic activity is significantly affected
β-galactosidase activity on endogenous expression of the peptide ([2]; yeast strains with or without CXCR4 (FIG. 3)): significant increase of β-galactosidase activity only in the strain that co-expresses CXCR4
concentration dependence of the effect on CXCR4 surface levels ([6]; FIG. 8D, 8E): No significant concentration-dependent response

Compound: c1cc(CN2CCCNCCNCCCNCC2)ccc1CN1CCCNCCNCCCNCC1 [AMD3100, reference compound]
interaction between T-20 and AMD3100 [7]: strong in vitro synergy
effect on basal level of the pheromone-responsive Fus1 promoter ([2]; AMD3100 1 μM (FIG. 2C)): does not effect the basal level
inhibition of β-galactosidase activity in response to SDF-1α ([2]; AMD3100 1 μM, SDF-1α 100 nM (FIG. 2C)): inhibited
toxicity / adverse effects in clinical trials [8]: cardiac toxicity
YAS2 colony formation ([4]; in response to SDF-1α, data not shown): inhibited
